Where a name gives a salt, the structure may show the parent alone. Read-outs that look alike come from different tables or passages of the source.
Assays:
[1] = biological target: HIV-1 Reverse Transcriptase (Human immunodeficiency virus type 1 group M subtype B, UniProt P03366); test: HIV-1 Reverse Transcriptase Assay (RNA-dependent DNA polymerase activity, SPA); format: biochemical; settings: HIV-RT enzyme 1-3 nM, 30° C. for 30 min, 10% DMSO
Protocol: HIV-1 Reverse Transcriptase Assay
RNA-dependent DNA polymerase activity was measured using a biotinylated primer oligonucleotide and tritiated dNTP substrate. Newly synthesized DNA was quantified by capturing the biotinylated primer molecules on streptavidin coated Scintillation Proximity Assay (SPA) beads (Amersham). The sequences of the polymerase assay substrate were: 18nt DNA primer, 5′-Biotin/GTC CCT GTT CGG GCG CCA-3′; 47nt RNA template, 5′-GGGUCUCUCUGGUUAGACCACUCUAGCAGUGGCGCCCGAACAGGGAC-3′. The biotinylated DNA primer was obtained from the Integrated DNA Technologies Inc. and the RNA template was synthesized by Dharmacon. The DNA polymerase assay (final volume 50 μl) contained 32 nM biotinylated DNA primer, 64 nM RNA substrate, dGTP, dCTP, dTTP (each at 5 μM), 103 nM [^3H]-dATP (specific activity=[…]), in 45 mM Tris-HCl, pH 8.0, 45 mM NaCl, 2.7 mM Mg(CH3COO)2, 0.045% Triton X-100 w/v, 0.9 mM EDTA. The reactions contained 5 ul of serial compound dilutions in 100% DMSO for IC50 determination and the final concentrations of DMSO were 10%. Reactions were initiated by the addition of 30 μl of the HIV-RT enzyme (final concentrations of 1-3 nM). Protein concentrations were adjusted to provide linear product formation for at least 30 min of incubation. […] The beads were left to settle overnight and the SPA signals were counted in a 96-well top counter-NXT (Packard). […]

[2] = test system: HXB2-strain of HIV in MT4 cells; test: Antiviral assay: protection of HIV-infected MT4 cells from cell death (MTT); format: cell-based; settings: read-out: Antiviral Assay IC50
Protocol: Antiviral Assay Method Anti-HIV antiviral activity was assessed using an adaptation of the method of Pawls et al. (J. Virol Methods 1988 20:309-321). The method is based on the ability of compounds to protect HIV-infected T lymphoblastoid cells (MT4 cells) from cell-death mediated by the infection. The endpoint of the assay was calculated as the concentration of compound at which the cell viability of the culture was preserved by 50% (‘50% inhibitory concentration’, IC50). The cell viability of a culture was determined by the uptake of soluble, yellow 3-[4,5-dimethylthiazol-2-yl]-2,5-diphenyltetrazolium bromide (MTT) and its reduction to a purple insoluble formazan salt. After solubilization, spectrophotometric methods were employed to measure the amount of formazan product. MT4 cells were prepared to be in logarithmic-phase growth and a total of 2×10^6 cells infected with the HXB2-strain of HIV at a multiplicity of 0.0001 infectious units of virus per cell in a total volume of between 200-500 microliters. […] When the formazan deposit was fully solubilized by further mixing, the absorbance (OD) of the cultures was measured at 540 nm and 690 nm wavelength (690 nm readings were used as blanks for artifacts between wells). The percent protection for each treated culture was then calculated from the equation: [formula] […]

Structure (SMILES)	melting point	IC50 [1]	IC50 ([2]; Human immunodeficiency virus 1, 120 h, MT4 cells infected with HXB2-strain of HIV, 5 days, MTT viability)	IC50 ([2]; Human immunodeficiency virus 1, HXB2, MT4, 120 h)
N#Cc1cc(Cl)cc(C(=O)c2cc(Cl)ccc2OCc2n[nH]c3ncccc23)c1 [Compound I-2, 3-Chloro-5-[5-chloro-2-(1H-pyrazolo[3,4-b]pyridin-3-ylmethoxy)-benzoyl]-benzonitrile]	194.3 to 195.9 °C	24.4 nM	3.7 nM	
N#Cc1cc(Cl)cc(Oc2c(Cl)ccc(OCc3n[nH]c4ncccc34)c2F)c1 [Compound I-3, 3-Chloro-5-[6-chloro-2-fluoro-3-(1H-pyrazolo[3,4-b]pyridin-3-ylmethoxy)-phenoxy]-benzonitrile, trifluoroacetate salt]		11 nM		8 nM
N#Cc1cc(Cl)cc(C(=O)c2c(CNc3n[nH]c4ncccc34)ccc(Br)c2F)c1 [Compound I-9]	214 to 215 °C			

Source: US20080293664A1, “Non-nucleoside reverse transcriptase inhibitors” (Roche Palo Alto LLC, priority 2007, published 2008)
